Common to all, as to assay: NCI-60 cell line screen, 48 h
For assay [1], the system named is UO-31 renal.
Assay [2] has as its system SK-MEL-2 melanoma.
In assay [3] the test system is MOLT-4 leukemia.
Assay [4] deals with RPMI-8226 leukemia.
Assay [5] concerns SR leukemia.
The subject of assay [6] is SF-539 CNS.
The subject of assay [7] is KM12 colon.
Assay [8] has as its system A549 NSCLC.
Assay [9] concerns OVCAR-5 ovarian.
In assay [10] the test system is MALME-3M melanoma.

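Cultured in 96-well plates, cells were exposed to test compound for 48 hours across five concentrations. At the GI50, growth is halved. At the TGI there is no net growth.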

As for `C=CCN(CC=C)C(=O)[C@H](CC)[C@@H]1CC[C@@H](C)[C@@H]([C@H](C)[C@@H](O)[C@@H](C)C(=O)[C@H](CC)C2O[C@]3(C=C[C@@H](O)[C@]4(CC[C@@](C)([C@H]5CC[C@](O)(CC)[C@H](C)O5)O4)O3)[C@H](C)C[C@@H]2C)O1` (some centres undefined), the GI50 is 2.16 µM in assay [1]; 2.62 µM in assay [2]; 2.33 µM in assay [3]; 1.62 µM in assay [4]; 2.41 µM in [5]; 1.97 µM in assay [6]. Besides, the GI50 in [7] was 1.87 µM; in assay [8], 3.37 µM; in assay [9], 2.25 µM; in assay [10], 1.76 µM. Further, the TGI amounted to 7.46 µM in assay [1]; 7.47 µM in assay [2]; 6.01 µM in assay [3]; 5.43 µM in assay [4]; 7.1 µM in assay [5]; 3.91 µM in assay [6]. For the same molecule, the TGI in assay [7] is 3.65 µM; in assay [8], above 100 µM; in [9] it was 7.26 µM; in [10] it was 3.6 µM.

Regarding `COc1cc2c(cc1NC(=O)C(Cl)Cl)-c1ccc(NC(=O)C(Cl)Cl)cc1C2`, the GI50 in assay [1] is 0.73 µM; in [2], 0.708 µM; in [3] it was 11.9 µM; in assay [4], 0.374 µM; in assay [5], 5.27 µM; in assay [6] it was 0.633 µM. Besides, the GI50 in [7] was 0.336 µM; in assay [8], 0.741 µM; in assay [9] it was 1.77 µM; in assay [10], 14 µM. The TGI is 2.75 µM in [1]; 2.07 µM in [2]; above 89.6 µM in assay [3]; 1.21 µM in assay [4]; 24.2 µM in assay [5]; 2.22 µM in assay [6]. The TGI in [7] worked out at 1.17 µM; in assay [8], 2.73 µM; in [9], 4.75 µM; in assay [10] it was 31.6 µM.

Take `O=[N+]([O-])/C=C/c1ccc(Cl)cc1Cl`: the TGI worked out at 29.8 µM in [1]; 40.2 µM in [2]; 45.7 µM in [3]; 5.66 µM in assay [4]; 47 µM in assay [5]; 33 µM in assay [6]. Moreover, the TGI in assay [7] came to 29.6 µM; in assay [8], 48.5 µM; in [9], 46.3 µM; in assay [10], 32.6 µM.

Consider `CC1CCC2(C)C(CC=C(C=O)C2(O)C=O)C12CO2` (centres undefined), for which the TGI in assay [1] turned out to be 5.69 µM; in assay [2], 8.53 µM; in [3], 5.83 µM; in assay [4] it was 6.83 µM; in assay [5], 5.33 µM; in assay [6], 4.52 µM. Further, the TGI in [7] was 11.4 µM; in [8], 26.4 µM; in [9], 8.03 µM; in [10], 8.74 µM.

`O=C(c1ccco1)c1c(C(F)(F)F)n([O-])c2cc(F)c(F)cc2[n+]1=O`: the GI50 in assay [1] is 0.546 µM; in [2], 2.93 µM; in assay [3], 0.0867 µM; in assay [5], 0.0237 µM; in assay [6], 0.329 µM; in [7], 0.7 µM. The values for the GI50 in assay [8], in [9] and in assay [10] were 1.32 µM, 0.67 µM and 2.06 µM, respectively. Also, the TGI in [1] came out at 1.03 µM; in assay [2] it was 12.8 µM; in assay [3], 0.411 µM; in [4], 0.341 µM; in [5], 0.39 µM; in assay [6] it was 0.679 µM. The TGI in [7] was 2 µM; in [8], 3.12 µM; in assay [9], 2.38 µM; in assay [10], 4.21 µM.

For `O=C(Cc1ccccc1)C(c1ccccc1)S(=O)(=O)c1ccccc1` (centres undefined), the TGI in assay [1], in assay [2], in assay [3], in [4], in assay [5] and in assay [6] was above 100 µM in each case. The TGI in assay [7], in assay [8], in assay [9] and in assay [10] was above 100 µM throughout.

Turning to `CC(N)CC(=O)O` (centres undefined), the TGI in assay [1], in assay [2], in assay [3], in assay [4], in [5] and in assay [6] was above 5000 µM throughout. For the same molecule, the TGI in assay [7], in assay [8], in assay [9] and in assay [10] was above 5000 µM throughout.

`CN(C)c1nc(N)c(C#N)c(C#N)c1C#N`: the TGI in [1], in assay [2], in assay [3], in assay [4], in assay [5] and in [6] was above 10 µM throughout. Besides, the TGI in assay [7], in [8], in assay [9] and in [10] was above 10 µM throughout.

Take `Cc1cc2c(c(=O)o1)C1=S(SC(c3ccccc3)=C1)S2` (centres undefined): the TGI is 94.8 µM in assay [1]; above 100 µM in assay [2]; above 100 µM in assay [3]; above 100 µM in assay [4]; 38.5 µM in assay [5]; 56.4 µM in assay [6]. Also, the TGI in assay [7] is above 100 µM; in [8] it was above 100 µM; in assay [9] it was above 100 µM; in assay [10] it was 86.7 µM.

For the molecule `O=c1[nH]c(=S)[nH]c(-c2ccccc2)c1Cc1c(O)ccc2ccccc12`, the TGI in assay [1] is 80.9 µM; in assay [2], 48.6 µM; in [3], above 100 µM; in [4] it was 67.6 µM; in assay [5] it was above 100 µM; in assay [6] it was 82.1 µM. In addition, the TGI in [7], in [8], in [9] and in [10] was above 100 µM in each case.

With `Nc1nc(C(=O)O)c(N=Nc2ccccc2)c(=O)[nH]1`, the TGI in [1], in assay [2], in assay [3], in assay [4], in [5] and in assay [6] was above 100 µM throughout. The TGI in assay [7], in assay [8], in [9] and in assay [10] was above 100 µM throughout.
